From publication PMC10793205, “Differential transmetallation of complexes of the anti-cancer thiosemicarbazone, Dp4e4mT: effects on anti-proliferative efficacy, redox activity, oxy-myoglobin and oxy-hemoglobin oxidation” (Chemical Science, 2023) come the findings set out here.

One may read the IC50 as the concentration that inhibits the measured activity by half. Read a high IC50 as weaker potency.

For data set [1], the system named is AsPC-1 cells. In words: MTT cellular proliferation assay, AsPC-1 pancreatic adenocarcinoma cells. The data set is classed as cell-based, human. As to conditions: for IC50: 37 °C, MTT, mean ± SD (3 experiments); for Therapeutic index AsPC-1: IC50 of MRC-5 cells/IC50 of AsPC-1 cells, 72 h/37 °C. The method, then:
The anti-proliferative activity of Dp4e4mT relative to its complexes with Fe(III), Co(III), Ni(II), Cu(II), Zn(II), Ga(III), and Pd(II) was examined over incubation periods of 24-, 48-, and 72 h/37 °C (Table 2). These studies were performed using human SK-N-MC neuroepithelioma and AsPC-1 pancreatic adenocarcinoma cells that we have previously examined to assay other ligands.[15,28,43] […]
All cell lines were procured from the American Type Culture Collection (ATCC; Manassas, VA). The SK-N-MC neuroepithelioma cell line and the mortal MRC-5 fibroblasts were cultured in minimum essential medium (Sigma-Aldrich), while the AsPC-1 cell line was cultured in Roswell Park Memorial Institute 1640 medium (Thermo Fisher Scientific, MA, USA). Both media were supplemented with 10% fetal calf serum, non-essential amino acids (1 mM), sodium pyruvate (1 mM), L-glutamine (2 mM), penicillin (100 U/mL), streptomycin (100 U/mL), and Fungizone (0.5 µg/mL). Cells were maintained at 37 °C in an incubator under a humidified atmosphere with 5% CO 2, following established protocols. 11 Cellular Proliferation Assay
Cellular proliferation was evaluated through the established 3-(4,5-dimethylthiazol-2-yl)-2,5-diphenyltetrazolium bromide (MTT) proliferation assay, validated by viable cell counts.12 […]
Ligands and complexes were dissolved in DMSO to make a stock solution of 10 mM, subsequently diluted in culture media. For cell culture experiments, the DMSO's maximum concentration remained below 0.5% (v/v), with no discernible impact on proliferation.12 MTT […]
Trypan blue staining.12 Analysis of the data was executed employing MARS Data Analysis Software (BMG LabTech; version 3.30). The concentration of agents necessary to inhibit cellular proliferation by 50% (IC 50) was then calculated. […]

The target of data set [2] is T1, oxy-Hb in intact human erythrocytes (Homo sapiens, UniProt P68871+P69905).
T1 construct: Physiologically, oxy-Hb is found in erythrocytes; endogenous in cells; host or cells: intact human erythrocytes from fresh blood of healthy donors
In words: Oxidation of oxy-Hb in intact human erythrocytes. The data set is classed as cell-based. As to conditions: 10 μM, 3 h/37 °C; for oxy-Hb oxidation to met-Hb in erythrocytes: control 0.5%. The method, then: Fig. 7 (A and B) Investigation of the effects of Dp4e4mT and its Fe(III), Co(III), Ni(II), Cu(II), Zn(II), Ga(III), and Pd(II) complexes versus DFO, Dp44mT, DpC and their Fe(III) complexes (10 μM) on met-Hb generation (% zero time) after an incubation of 1–3 h/20 °C with purified oxy-Hb (40 μM). (C) Investigation of the effects of Dp4e4mT and its Fe(III), Co(III), Ni(II), Cu(II), Zn(II), Ga(III), or Pd(II) complexes relative to the positive controls DFO, Dp44mT, DpC, and their Fe(III) complexes (10 μM) on oxy-Hb oxidation in intact human erythrocytes after a 3 h/37 °C incubation. Results are mean ± SD (3 experiments).
Physiologically, oxy-Hb is found in erythrocytes, and in the current investigation, the ligands and complexes (10 μM) were incubated with intact human erythrocytes for 3 h/37 °C to assess their effects on oxy-Hb oxidation (Fig. 7C). As expected from our previous studies,[28,39] […]
In experiments examining the activity of the agents, all complexes were dissolved in 1,2-propanediol, then diluted to 10 µM in PBS (pH 7.2). […]
1800; Shimadzu, Kyoto, Japan). Concentrations of met-Mb and met-Hb, as well as reduced-Mb and reduced-Hb, were determined at 409 nm and 435 nm, respectively. Concentrations of oxy-Mb and oxy-Hb were determined at 544 nm and 582 nm, respectively. 17 Oxidation of Oxy-Hb in Human Erythrocytes
Oxidation of oxy-Hb in human erythrocytes was performed by standard methods using fresh blood from healthy donors after collection in Vacutainer® collection tubes (BD, Plymouth, UK).8 Erythrocytes centrifuged (480 xg/5 min/4°C) and then washed in HBSS, and subsequently resuspended in this buffer. Incubation of the erythrocytes (15% hematocrit) in the absence or presence of the agents (10 μM) was performed for 3 h/37°C. The erythrocytes were […]

Setting [3] is: Homo sapiens, ASPC1, AsPC-1, 24 h.
The mark [4] stands for this setting: Homo sapiens, ASPC1, AsPC-1, 48 h.
Setting [5] is: Homo sapiens, ASPC1, AsPC-1, 72 h.

T1 sequence (P69905 2-142 limits assumed): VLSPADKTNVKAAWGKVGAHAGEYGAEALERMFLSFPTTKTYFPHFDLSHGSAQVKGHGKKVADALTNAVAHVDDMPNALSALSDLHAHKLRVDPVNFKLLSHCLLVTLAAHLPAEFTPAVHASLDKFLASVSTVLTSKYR
T1 sequence (P68871 2-147 limits assumed): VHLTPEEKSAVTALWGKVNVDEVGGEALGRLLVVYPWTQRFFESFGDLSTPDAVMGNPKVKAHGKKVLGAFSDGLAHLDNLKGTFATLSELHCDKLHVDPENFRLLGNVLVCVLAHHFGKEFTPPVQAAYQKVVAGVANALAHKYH

Take `CCN(C)C([S-])=NN=C(c1ccccn1)c1ccccn1.CCN(C)C([S-])=NN=C(c1ccccn1)c1ccccn1.[Co+3]` [[Co(Dp4e4mT)2]^+]: the IC50 in data set [1] (AsPC-1, 24 h) was determined as 9522 ± 91 nM; in data set [1] (AsPC-1, 48 h) it was 2680 ± 78 nM; in data set [1] (AsPC-1, 72 h) it was 1570 ± 257 nM. Moreover, the “Therapeutic index AsPC-1” value in data set [1] worked out at 2. Besides, the results for the “oxy-Hb oxidation in erythrocytes versus the control (in words)” value in data set [2] and in data set [2] (listed as Dp4e4mT Co(III) complex) were “negligible effects on oxy-Hb oxidation” and “no (p > 0.05) significant effect on oxy-Hb oxidation”, respectively.

For `CN(C)C(=S)NN=C(c1ccccn1)c1ccccn1` [Dp44mT, di-2-pyridylketone 4,4-dimethyl-3-thiosemicarbazone, reference compound], the results for the half-maximal inhibitory concentration (IC50) in data set [1] (setting [3]), in data set [1] (setting [4]) and in data set [1] (setting [5]) were 4640 ± 71 nM, 42 ± 6 nM and 15 ± 3 nM, respectively. For the same molecule, the “Therapeutic index AsPC-1” value in data set [1] worked out at 71. Also, the “oxy-Hb oxidation to met-Hb in erythrocytes” value (“oxy-Hb oxidation to met-Hb” for short) in data set [2] is 2.3 % of the total.

Turning to `CCN(C)C([S-])=NN=C(c1ccccn1)c1ccccn1.CCN(C)C([S-])=NN=C(c1ccccn1)c1ccccn1.[Ga+3]` [[Ga(Dp4e4mT)2]^+], the IC50 in data set [1] (AsPC-1, 24 h) was 2431 ± 15 nM; in data set [1] (AsPC-1, 24 h, listed as Dp4e4mT Ga(III) complex), 1730 to 2430 nM; in data set [1] (AsPC-1, 48 h) it was 47 ± 6 nM; in data set [1] (AsPC-1, 72 h) it was 5 ± 1 nM. Also, the “Therapeutic index AsPC-1” value in data set [1] stood at 154. Further, in data set [2], the “oxy-Hb oxidation in erythrocytes versus the control (in words)” value is recorded as “slight effect”. In addition, in data set [2], the “oxy-Hb oxidation to met-Hb” value is 1.3 % of the total.

For the molecule `CN(C(=S)NN=C(c1ccccn1)c1ccccn1)C1CCCCC1` [DpC, di-2-pyridylketone 4-cyclohexyl-4-methyl-3-thiosemicarbazone, reference compound], the IC50 in data set [1] (setting [3]) is 4921 ± 34 nM; in data set [1] (setting [4]) it was 87 ± 34 nM; in data set [1] (setting [5]), 18 ± 7 nM. Further, in data set [1], the “Therapeutic index AsPC-1” value is 165. Also, the “oxy-Hb oxidation in erythrocytes versus the control (in words)” value in data set [2] was “did not induce any significant (p > 0.05) increase in oxy-Hb oxidation”.

Consider `CCN(C)C([S-])=NN=C(c1ccccn1)c1ccccn1.CCN(C)C([S-])=NN=C(c1ccccn1)c1ccccn1.[Zn+2]` [[Zn(Dp4e4mT)2]], for which the “Therapeutic index AsPC-1” value in data set [1] came to 125. Also, the “oxy-Hb oxidation in erythrocytes versus the control (in words)” value was “negligible effects on oxy-Hb oxidation” in data set [2] and “no (p > 0.05) significant effect on oxy-Hb oxidation” in data set [2] (listed as Dp4e4mT Zn(II) complex).

For the molecule `CCN(C)C([S-])=NN=C(c1ccccn1)c1ccccn1.[Cl-].[Pd+2]` [[Pd(Dp4e4mT)Cl]], the IC50 in data set [1] (AsPC-1, 24 h) is above 25000 nM; in data set [1] (AsPC-1, 48 h) it was 1340 ± 74 nM; in data set [1] (AsPC-1, 72 h), 262 ± 78 nM. Moreover, in data set [1], the “Therapeutic index AsPC-1” value worked out at 3. Further, the “oxy-Hb oxidation in erythrocytes versus the control (in words)” value in data set [2] is recorded as “negligible effects on oxy-Hb oxidation”; in data set [2] (listed as Dp4e4mT Pd(II) complex), “no (p > 0.05) significant effect on oxy-Hb oxidation”.

Regarding `CCN(C)C([S-])=NN=C(c1ccccn1)c1ccccn1.[Cl-].[Cu+2]` [[Cu(Dp4e4mT)Cl]], the IC50 in data set [1] (AsPC-1, 24 h) was 1074 ± 6 nM; in data set [1] (AsPC-1, 48 h) it was 42 ± 6 nM; in data set [1] (AsPC-1, 72 h), 3 ± 1 nM. For the same molecule, the “Therapeutic index AsPC-1” value in data set [1] was found to be 130. In data set [2], the “oxy-Hb oxidation in erythrocytes versus the control (in words)” value was “negligible effects on oxy-Hb oxidation”.

In the case of `CCN(C)C([S-])=NN=C(c1ccccn1)c1ccccn1.CCN(C)C([S-])=NN=C(c1ccccn1)c1ccccn1.[Fe+3]` [[Fe(Dp4e4mT)2]^+], the IC50 in data set [1] (AsPC-1, 24 h) amounted to 22380 ± 58 nM; in data set [1] (AsPC-1, 48 h) it was 1580 ± 77 nM; in data set [1] (AsPC-1, 72 h) it was 201 ± 31 nM. The “Therapeutic index AsPC-1” value in data set [1] worked out at 9. Besides, the “oxy-Hb oxidation to met-Hb” value in data set [2] is listed as 4.8 % of the total.

For the molecule `CCN(C)C([S-])=NN=C(c1ccccn1)c1ccccn1.CCN(C)C([S-])=NN=C(c1ccccn1)c1ccccn1.[Ni+2]` [[Ni(Dp4e4mT)2]], the IC50 in data set [1] (AsPC-1, 24 h) is above 25000 nM; in data set [1] (AsPC-1, 48 h) it was 234 ± 83 nM; in data set [1] (AsPC-1, 72 h) it was 76 ± 54 nM. In data set [1], the “Therapeutic index AsPC-1” value amounted to 62. The “oxy-Hb oxidation in erythrocytes versus the control (in words)” value in data set [2] is recorded as “negligible effects on oxy-Hb oxidation”; in data set [2] (listed as Dp4e4mT Ni(II) complex) it was “no (p > 0.05) significant effect on oxy-Hb oxidation”.

Consider `CCN(C)C(=S)NN=C(c1ccccn1)c1ccccn1` [Dp4e4mT, di-2-pyridylketone-4-ethyl-4-methyl-3-thiosemicarbazone], for which the IC50 in data set [1] (setting [3]) was 3780 ± 91 nM; in data set [1] (setting [4]) it was 45 ± 8 nM; in data set [1] (setting [5]), 9 ± 2 nM. In addition, in data set [1], the “Therapeutic index AsPC-1” value came out at 120. Moreover, the “oxy-Hb oxidation to met-Hb” value in data set [2] was 1.9 % of the total.
